Measured values as given in article PMC10150623 (Journal of Enzyme Inhibition and Medicinal Chemistry, 2023).
Peptide text beside a SMILES is read from it.

What was measured:
leg muscle paralysis = tested on: leg muscle paralysis; design: species or system KM mice; conditions: mouse, in vivo
[1] = in vivo; cited from earlier work
BoNT/A LC (1–448 aa) = BoNT/A LC (1–448 aa) (Clostridium botulinum, UniProt P0DPI0); format: biochemical
[2] = target: Clostridium botulinum neurotoxin type A light chain (1-448 aa) (Clostridium botulinum) (UniProt P0DPI0); test: enzyme inhibition kinetics (HPLC of substrate and products)
BoNT/A = conditions: cited from earlier work

Chain of BoNT/A LC (1–448 aa) (P0DPI0 1-448 limits assumed): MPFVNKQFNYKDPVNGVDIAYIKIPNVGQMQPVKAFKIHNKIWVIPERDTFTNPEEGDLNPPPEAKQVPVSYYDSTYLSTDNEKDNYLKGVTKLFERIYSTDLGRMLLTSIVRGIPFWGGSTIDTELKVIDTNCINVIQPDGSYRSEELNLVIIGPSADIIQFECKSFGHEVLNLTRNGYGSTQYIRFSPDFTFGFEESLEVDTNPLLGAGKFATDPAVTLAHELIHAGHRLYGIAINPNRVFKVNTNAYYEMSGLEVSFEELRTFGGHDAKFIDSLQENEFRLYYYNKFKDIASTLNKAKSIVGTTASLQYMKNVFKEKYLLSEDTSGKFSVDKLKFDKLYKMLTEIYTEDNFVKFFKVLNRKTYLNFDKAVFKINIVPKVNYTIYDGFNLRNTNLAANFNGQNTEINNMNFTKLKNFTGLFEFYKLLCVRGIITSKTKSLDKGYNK
Chain of Clostridium botulinum neurotoxin type A light chain (1-448 aa) (Clostridium botulinum) (P0DPI0 1-448): as the sequence (P0DPI0 1-448 limits assumed) above

Clostridium botulinum neurotoxin type A [BoNT/A]
DAS (digit abduction score) (leg muscle paralysis): 3–4
nonserious cases following cosmetic use [1]: 995 cases
nonserious cases following therapeutic use [1]: 189 cases
serious cases following cosmetic use [1]: 36 cases
serious cases following therapeutic use [1]: 217 cases

RHGW
inhibitory effect on BoNT/A LC proteolytic activity (SNAP-25 cleavage), in words (BoNT/A LC (1–448 aa)): RRGW showed a better inhibitory effect on BoNT/A proteolytic activity than RRGC, RRGL and RHGW

RRGL
inhibitory effect on BoNT/A LC proteolytic activity (SNAP-25 cleavage), in words (BoNT/A LC (1–448 aa)): RRGW showed a better inhibitory effect on BoNT/A proteolytic activity than RRGC, RRGL

N=C(N)NCCC[C@H](NC(=O)[C@@H](N)CCCNC(=N)N)C(=O)NCC(=O)N[C@@H](Cc1c[nH]c2ccccc12)C(=O)O [RRGW] (H-RRGW-OH)
cytotoxicity (cell viability) (SH-SY5Y cells): no cytotoxicity
cytotoxicity (cell viability) (Neuro-2A (N2A) cells): no cytotoxicity

RRGW tetrapeptide
Ki [2]: 790 nM

CRGC
cell-based activity, in words (BoNT/A): higher activity than RRGC in cell-based experiments
